# Measured values reported in patent US20030212123A1, “COX-2 selective carprofen for treating pain and inflammation in dogs” (Pfizer Inc., priority 1997, published 2003).
# Where two headings read alike, the source gives them in different places.
# Legend:
# [1] = dog, in vivo, po
# Experimental: Following oral dosing to dogs of an immediate release carprofen formulation at a dose of 2 mg/lb, plasma carprofen concentrations were above 10 μg/mL for approximately 10.5 hr. In accordance with the present invention, 2 mg/lb/day is within the range of preferred doses of carprofen.
# Immediate release carprofen dosage forms containing doses of 1.8, 1.6, and 1.4 mg/lb maintain a plasma carprofen concentration above 10 μg/mL for 9.5 hrs, 8.5 hrs, and 7.5 hrs, respectively.
# [2] = biological target: T1, COX-1 (Canis lupus familiaris, UniProt Q8HZR1); test: Ex vivo COX-1 whole blood assay (TXB2) run in the carrageenan study, Example 4; parameters: species or system dog; conditions: 2 mg/kg PO, any of the timepoints tested
# T1 construct: using an ex vivo procedure on canine whole blood; from tissue; host or cells: whole blood of dosed dogs, stimulated with calcium ionophore A23187
# T1 sequence (Q8HZR1 28-603): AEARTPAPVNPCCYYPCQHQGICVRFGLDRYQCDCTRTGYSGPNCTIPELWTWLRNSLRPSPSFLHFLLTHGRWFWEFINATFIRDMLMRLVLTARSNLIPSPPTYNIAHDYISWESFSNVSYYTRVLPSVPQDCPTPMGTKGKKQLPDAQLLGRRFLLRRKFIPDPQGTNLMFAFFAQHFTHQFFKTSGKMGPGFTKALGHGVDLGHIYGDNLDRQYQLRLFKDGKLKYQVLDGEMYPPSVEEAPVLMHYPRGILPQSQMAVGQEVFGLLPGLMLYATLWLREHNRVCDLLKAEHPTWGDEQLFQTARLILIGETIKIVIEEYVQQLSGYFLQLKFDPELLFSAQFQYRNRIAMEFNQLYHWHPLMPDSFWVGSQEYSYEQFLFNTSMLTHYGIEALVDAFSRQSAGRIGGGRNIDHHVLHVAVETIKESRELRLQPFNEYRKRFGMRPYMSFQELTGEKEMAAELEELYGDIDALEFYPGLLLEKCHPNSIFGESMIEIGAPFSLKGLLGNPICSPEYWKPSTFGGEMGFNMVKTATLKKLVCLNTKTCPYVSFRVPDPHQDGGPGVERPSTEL
# Excerpt: The experiment was run in two replicates.
# Table 5 illustrates that carrageenan induced almost a 4-fold increase in PGE2 synthesis in the whiffle ball over background levels.
# [3] = biological target: T2, canine COX-2 (Canis lupus familiaris, UniProt Q8SPQ9); test: Canine COX-2 activity: LPS-treated DH82 canine histocytoma cells, PGE2 by EIA; type: cell-based, dog
# T2 construct: host or cells: DH82 canine histocytoma cells, LPS-treated overnight
# T2 sequence (Q8SPQ9 18-604): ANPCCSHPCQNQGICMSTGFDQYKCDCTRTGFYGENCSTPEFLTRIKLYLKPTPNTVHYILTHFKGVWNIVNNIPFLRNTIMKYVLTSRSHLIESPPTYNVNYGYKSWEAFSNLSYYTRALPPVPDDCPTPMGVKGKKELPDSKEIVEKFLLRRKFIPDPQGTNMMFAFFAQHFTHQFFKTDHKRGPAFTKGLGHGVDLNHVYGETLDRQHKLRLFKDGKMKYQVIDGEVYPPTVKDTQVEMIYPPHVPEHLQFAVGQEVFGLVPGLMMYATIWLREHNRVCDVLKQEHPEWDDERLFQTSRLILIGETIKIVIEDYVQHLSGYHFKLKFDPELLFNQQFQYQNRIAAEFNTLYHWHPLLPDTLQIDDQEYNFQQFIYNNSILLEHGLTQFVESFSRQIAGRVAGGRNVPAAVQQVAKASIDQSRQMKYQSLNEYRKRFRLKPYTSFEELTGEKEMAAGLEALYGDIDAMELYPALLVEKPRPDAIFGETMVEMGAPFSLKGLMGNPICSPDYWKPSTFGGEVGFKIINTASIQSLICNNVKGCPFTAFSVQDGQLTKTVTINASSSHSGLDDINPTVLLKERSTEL
# Experimental: Protocol for Evaluation of Canine COX-2 Activity
# A canine histocytoma (macrophage-like) cell line from the American Type Culture Collection designated as DH82, was used in setting up the protocol for evaluating the COX-2 inhibition activity of various test drug compounds. There was added to flasks of these cells 10 μg/mL of LPS, after which the flask cultures were incubated overnight. The same test drug compound dilutions as described above for the COX-1 protocol were used for the COX-2 assay and were prepared the day before the assay was carried out. […] The test sample suspensions were incubated for 1 hr and then centrifuged at 1000 rpm for 10 min at 4° C., after which 50 μl aliquots of each test drug sample were delivered to EIA plates. The EIA was performed for prostaglandin E2 (PGE2), and the pg/mL concentration of PGE2 was calculated from the standard line included on each plate. […] The results were averaged, and a single COX-1:COX-2 ratio was calculated.
# [4] = biological target: COX-2 (Canis lupus familiaris, UniProt Q8SPQ9); test: in vivo; conditions: for PGE2 Pg/mL/Well: group average; for inhibition at 2 mg/kg / inhibition at 10 mg/kg: dog, po
# Experimental: A zero-hour blood sample was collected from all dogs in the study prior to dosing, followed by 1-, 3-, and 6-hour post-dose blood sample collections. […] Test tubes used as controls contained vehicle and were unstimulated by the addition of any agent. A 500 μL sample of blood was added to each of the above-described test tubes, after which they were incubated at 37° C. for one hr in the case of the calcium ionophore-containing test tubes, and overnight in the case of the LPS-containing test tubes. After incubation, 10 μL of EDTA was added to give a final concentration of 0.3%, in order to prevent coagulation of the plasma which sometimes occurs after thawing frozen plasma samples. The incubated samples were centrifuged at 4° C. and the resulting plasma sample of ˜200 μL was collected and stored at −20° C. in polypropylene 96-well plates. In order to determine endpoints for this study, enzyme immunoassay (EIA) kits available from Cayman were used to measure production of TXB2 and PGE2, utilizing the principle of competitive binding of tracer to antibody and endpoint determination by colorimetry.
# The data is expressed as treatment group averages in pg/mL of TXB2 and PGE2 produced per sample. Plasma dilution was not factored in said data values.
smiles,measurement,setting,value
"CC(C(=O)O)c1ccc2c(c1)[nH]c1ccc(Cl)cc12 (racemic) [Carprofen (rac.), 6-chloro-α-methyl-9H-carbazole-2-acetic acid]",time plasma carprofen concentrations were above 10 μg/mL,[1],approximately 10.5 hr
same,ex vivo COX-1 inhibition of TXB2,[2],no inhibition of TXB2
same,IC50,[3],102 nM
same,PGE2 Pg/mL/Well,"[4]; 2 mg/kg PO capsule, 0-hour (pre-dose)",511 Pg/mL/Well
same,PGE2 Pg/mL/Well,"[4]; 2 mg/kg PO capsule, 1-hour post-dose",33 Pg/mL/Well
same,PGE2 Pg/mL/Well,"[4]; 2 mg/kg PO capsule, 3-hour post-dose",98 Pg/mL/Well
same,PGE2 Pg/mL/Well,"[4]; 2 mg/kg PO capsule, 6-hour post-dose",190 Pg/mL/Well
same,PGE2 Pg/mL/Well,"[4]; 10 mg/kg PO capsule, 0-hour (pre-dose)",336 Pg/mL/Well
same,PGE2 Pg/mL/Well,"[4]; 10 mg/kg PO capsule, 1-hour post-dose",19 Pg/mL/Well
same,PGE2 Pg/mL/Well,"[4]; 10 mg/kg PO capsule, 3-hour post-dose",12 Pg/mL/Well
same,PGE2 Pg/mL/Well,"[4]; 10 mg/kg PO capsule, 6-hour post-dose",12 Pg/mL/Well
same,inhibition at 2 mg/kg,"[4]; read-out: COX-2 activity Percent Inhibition, 2 mg/kg PO capsule, 1-hour, based on zero hour value",94%
same,inhibition at 2 mg/kg,"[4]; read-out: COX-2 activity Percent Inhibition, 2 mg/kg PO capsule, 3-hour, based on zero hour value",81%
same,inhibition at 2 mg/kg,"[4]; read-out: COX-2 activity Percent Inhibition, 2 mg/kg PO capsule, 6-hour, based on zero hour value",63%
same,inhibition at 10 mg/kg,"[4]; read-out: COX-2 activity Percent Inhibition, 10 mg/kg PO capsule, 1-hour, based on zero hour value",94%
same,inhibition at 10 mg/kg,"[4]; read-out: COX-2 activity Percent Inhibition, 10 mg/kg PO capsule, 3-hour, based on zero hour value",96%
same,inhibition at 10 mg/kg,"[4]; read-out: COX-2 activity Percent Inhibition, 10 mg/kg PO capsule, 6-hour, based on zero hour value",96%
